Data reported in patent US11148990B2 (JOST CHEMICAL CO., priority 2019, dated 2021).

Key:
Assay type in all cases: physicochemical
[1] = Aqueous stability of 10% w/w solution standing for 24 hours, visual inspection; details: 10% w/w solution in water
[2] = Apparent density measurement
Description: In addition, particle size distribution and apparent density of di-magnesium citrate glycinate co-salt were measured.

[3] = Compressibility: tablets on instrumented Carver press, no excipients, three-point bend stress; details: current experimental conditions
Description: Compressibility of a second sample of magnesium citrate glycinate was evaluated using an instrumented Carver press. Approximately 1.6 g, 5 mm thick tablets were compressed using the 0.4″×0.9″ rectangular tooling. No excipients were used. The sides of the tooling were slightly dusted with magnesium stearate in order to facilitate tablet ejection and eliminate sticking. The tablets were subjected to a three-point bend stress using a TA.XT2-Plus texture analyzer (from Stable Micro Systems of Surrey, England). Flexural strength and young modulus of the compact were measured. In addition, compact density was calculated from the weight and size measurements of the tablets.
An attempt was made to compare compressibility of magnesium citrate glycinate with those of individual salts, magnesium citrate tribasic and magnesium bis-glycinate.

Structure (SMILES)	Aqueous stability, change of clear and colorless solution [1]	Apparent density [2] [kg/m^3]	Compressibility, tablet formation [3]
NCC(=O)[O-].O=C([O-])CC(O)(CC(=O)[O-])C(=O)[O-].[Mg+2].[Mg+2] [magnesium citrate glycinate co-salt]	no change	1740	–
NCC(=O)[O-].NCC(=O)[O-].[Mg+2] [magnesium bis-glycinate]	–	–	no cohesive tablets were obtained
O=C([O-])CC(O)(CC(=O)[O-])C(=O)[O-].O=C([O-])CC(O)(CC(=O)[O-])C(=O)[O-].[Mg+2].[Mg+2].[Mg+2] [magnesium citrate tribasic]	–	–	no cohesive tablets were obtained
